What all share (type): cell-based
Test [1] deals with HEK293 clonal cell line overexpressing APOL1 G1. Nature of the test: APOL1 G1 HEK293 cell rescue assay (Example B3). The conditions noted are these: Homo sapiens, HEK293, HEK293 clonal line overexpressing APOL1 G1; geometric mean of at least 2 runs; † = single run; ¥ = concentration at 50% rescue estimated (no sigmoidal curve). The method, boiled down:
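HEK293 clonal line overexpressing APOL1 G1; EC50 is half-maximal reversal of APOL1-induced cell death. Values are the geometric mean of ≥2 runs on separate days, each run the average of duplicate wells. Where no sigmoidal curve could be fitted, the concentration giving 50% rescue was estimated.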

The target in a further test is T1, APOL1 G2 (Homo sapiens, UniProt O14791, DEL388-389).
T1 construct: expressed in transfected cells; host or cells: HEK293 T-REx clonal line stably expressing GCaMP6f (HEK T-REx/GCaMP6f/APOL1 G2 K6.3), doxycycline induced
T1 sequence (O14791 with tags, fused parts or gaps DEL388-389): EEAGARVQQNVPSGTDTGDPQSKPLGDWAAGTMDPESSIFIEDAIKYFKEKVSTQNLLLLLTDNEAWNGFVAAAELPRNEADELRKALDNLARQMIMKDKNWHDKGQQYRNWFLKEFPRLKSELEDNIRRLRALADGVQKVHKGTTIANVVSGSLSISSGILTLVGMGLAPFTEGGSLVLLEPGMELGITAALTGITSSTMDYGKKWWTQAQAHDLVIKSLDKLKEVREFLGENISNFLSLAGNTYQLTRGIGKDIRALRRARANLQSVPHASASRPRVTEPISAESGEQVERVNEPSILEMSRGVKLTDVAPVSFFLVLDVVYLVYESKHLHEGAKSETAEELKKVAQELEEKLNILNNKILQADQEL
Briefly: APOL1-mediated calcium transport (calcium influx) assay, HEK T-REx/GCaMP6f/APOL1 G2 K6.3 cells, FLIPR TETRA. The conditions noted are these: prevention of calcium influx; geometric mean of at least 2 assay runs; † = average of a technical replicate from a single assay run. The method, boiled down: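 A HEK293 T-REx clone stably expressing GCaMP6f had APOL1 G2 induced with doxycycline (20 ng/mL solution added) for 6 h. Cells were then washed into Ca2+-free Tyrode's buffer (pH 7.4) and preincubated with compounds (duplicate 8-point) for 10 min at room temperature. Ca2+ injection to 5 mM final produced FLIPR GCaMP fluorescence, giving AC50 for influx inhibition (geometric mean, ≥2 runs).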

Test [2] has as its system HEK293 cells overexpressing APOL1 G2. Nature of the test: APOL1 G2 HEK293 cell rescue assay (reversal of cell death caused by overexpression of APOL1). The conditions noted are these: Homo sapiens, HEK293, HEK293 overexpressing APOL1 G2; geometric mean of at least 2 assay runs; † = single assay run. Put shortly: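 EC50 is the half-maximal effective concentration for reversing cell death driven by APOL1 G2 overexpression in HEK293 cells. Reported as geometric mean of at least 2 runs on separate days, each run averaging duplicate wells per plate; some values from a single run.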

pEC50: −log10 of the molar value.

`O=C1OC2(COC2)c2ccc(OCCN3CCC4(CC3)C(=O)Nc3ccc(Cl)cc34)cc21` [Compound 179, 5-chloro-1′-(2-{3-oxo-3H-spiro[2-benzofuran-1,3′-oxetan]-5-yloxy}ethyl)-1,2-dihydrospiro[indole-3,4′-piperidin]-2-one]: the pEC50 (as a rule, the negative decadic logarithm of the EC50, by convention in mol/L) in test [1] is 6.32; in test [2], 6.79. In addition, the AC50 (commonly the concentration at which the activity in the assay is half-maximal) on APOL1 G2 came to 655 nM.

With `CS(=O)(=O)C1(c2ccc(OCCN3CCC4(CC3)C(=O)Nc3ccc(C#N)cc34)cc2)CC2(COC2)C1` [Compound 183, 1′-[2-(4-{6-methanesulfonyl-2-oxaspiro[3.3]heptan-6-yl}phenoxy)ethyl]-2-oxo-1,2-dihydrospiro[indole-3,4′-piperidine]-5-carbonitrile], the pEC50 in test [1] was approximately 5.24; in test [2] it was 6.15. Besides, on APOL1 G2, the AC50 was 1520 nM.

Take `CS(=O)(=O)Nc1ccc(OCCN2CCC3(CC2)C(=O)N(CCO)c2ccc(Cl)cc23)cc1C(F)(F)F` [Compound 186, N-(4-{2-[5-chloro-1-(2-hydroxyethyl)-2-oxo-1,2-dihydrospiro[indole-3,4′-piperidin]-1′-yl]ethoxy}-2-(trifluoromethyl)phenyl)methanesulfonamide]: the figures for the negative logarithm of the EC50 (pEC50) in test [1] and in test [2] were 7.01 and 7.44, respectively. The AC50 at APOL1 G2 stood at 524 nM.

Turning to `CS(=O)(=O)C1(c2ccc(OCCN3CCC4(CC3)C(=O)Nc3ccc(C#N)cc34)cc2)CCOCC1` [Compound 187, 1′-{2-[4-(4-methanesulfonyloxan-4-yl)phenoxy]ethyl}-2-oxo-1,2-dihydrospiro[indole-3,4′-piperidine]-5-carbonitrile], the pEC50 in test [1] was 5.90; in test [2], 6.57. Moreover, the half-maximal activity concentration (AC50) on APOL1 G2 was 1220 nM.

Consider `CC(=O)N1CCc2cc(OCCN3CCC4(CC3)C(=O)Nc3ccc(Cl)cc34)ccc2C1` [Compound 194, 1′-{2-[(2-acetyl-1,2,3,4-tetrahydroisoquinolin-6-yl)oxy]ethyl}-5-chloro-1,2-dihydrospiro[indole-3,4′-piperidin]-2-one], for which the values for the pEC50 in test [1] and in test [2] were 6.38 and 6.61, respectively. Besides, the AC50 on APOL1 G2 came to 600 nM.

For the compound `CC(COc1ccc2c(c1)CCC(=O)N2C)N1CCC2(CC1)C(=O)Nc1ccc(Cl)cc12` (stereo not drawn) [Compound 199, 5-chloro-1′-{1-[(1-methyl-2-oxo-1,2,3,4-tetrahydroquinolin-6-yl)oxy]propan-2-yl}-1,2-dihydrospiro[indole-3,4′-piperidin]-2-one], the pEC50 in test [1] was 6.51; in test [2] it was 6.83. On APOL1 G2, the AC50 is 1130 nM.

Consider `CC(COc1ccc2c(c1)CCC(=O)N2C)N1CCC2(CC1)C(=O)Nc1ccc(C#N)cc12` (stereo not drawn) [Compound 202, 1′-{1-[(1-methyl-2-oxo-1,2,3,4-tetrahydroquinolin-6-yl)oxy]propan-2-yl}-2-oxo-1,2-dihydrospiro[indole-3,4′-piperidine]-5-carbonitrile], for which the values for the pEC50 in test [1] and in test [2] were 5.59 and 6.50, respectively. The AC50 at APOL1 G2 came to 1720 nM.

In the case of `CS(=O)(=O)c1ccc(OCCN2CCC3(CC2)C(=O)Nc2ccc(Cl)cc23)cc1C(F)CF` (stereo not drawn) [Compound 217, 5-chloro-1′-{2-[3-(1,2-difluoroethyl)-4-methanesulfonylphenoxy]ethyl}-1,2-dihydrospiro[indole-3,4′-piperidin]-2-one], the pEC50 is 6.97 in test [1] and 7.49 in test [2]. Further, on APOL1 G2, the AC50 was determined as 866 nM.

For `CS(=O)(=O)c1ccc(OCCN2CCC3(CC2)C(=O)Nc2ccc(C#N)cc23)cc1C(F)CF` (stereo not drawn) [Compound 220, 1′-{2-[3-(1,2-difluoroethyl)-4-methanesulfonyl-phenoxy]ethyl}-2-oxo-1,2-dihydrospiro [indole-3,4′-piperidine]-5-carbonitrile], the pEC50 in test [1] is 6.52; in test [2], 7.28. Besides, on APOL1 G2, the AC50 is 679 nM.

As to `CS(=O)(=O)c1ccc(OCCN2CCC3(CC2)C(=O)Nc2ccc(Cl)cc23)cc1C1COC1` [Compound 223, 5-chloro-1′-{2-[4-methanesulfonyl-3-(oxetan-3-yl)phenoxy]ethyl}-1,2-dihydrospiro[indole-3,4′-piperidin]-2-one], the pEC50 in test [1] was 6.49; in test [2] it was 7.01. In addition, the AC50 at APOL1 G2 came out at 311 nM.

For `CNC(=O)N1CCc2cc(OCCN3CCC4(CC3)C(=O)Nc3ccc(C#N)cc34)ccc2C1` [Compound 246, 6-(2-{5-cyano-2-oxo-1,2-dihydrospiro[indole-3,4′-piperidin]-1′-yl}ethoxy)-N-methyl-1,2,3,4-tetrahydroisoquinoline-2-carboxamide], the pEC50 is 5.31 in test [1] and 6.25 in test [2]. In addition, the AC50 on APOL1 G2 worked out at 1340 nM.

Take `N#Cc1ccc2c(c1)C1(CCN(CCOc3ccc(C4(C(=O)N5CC(F)C5)COC4)cc3)CC1)C(=O)N2` [Compound 252, 1′-(2-{4-[3-(3-fluoroazetidine-1-carbonyl)oxetan-3-yl]phenoxy}ethyl)-2-oxo-1,2-dihydrospiro[indole-3,4′-piperidine]-5-carbonitrile]: the figures for the pEC50 in test [1] and in test [2] were approximately 5.74 and 6.33, respectively. The AC50 on APOL1 G2 is 1350 nM.

On to `N#Cc1ccc2c(c1)C1(CCN(CCOc3ccc(C4(C(=O)N5CCC5)COC4)cc3)CC1)C(=O)N2` [Compound 253, 1′-(2-{4-[3-(azetidine-1-carbonyl)oxetan-3-yl]phenoxy}ethyl)-2-oxo-1,2-dihydrospiro[indole-3,4′-piperidine]-5-carbonitrile], for which the pEC50 in test [1] is approximately 5.36; in test [2], 6.22. Besides, the AC50 on APOL1 G2 came to 1220 nM.

Regarding `O=C1Cc2cc(OCCN3CCC4(CC3)C(=O)Nc3ccc(Cl)cc34)cc(F)c2N1` [Compound 256, 5-chloro-1′-{2-[(7-fluoro-2-oxo-2,3-dihydro-1H-indol-5-yl)oxy]ethyl}-1,2-dihydrospiro[indole-3,4′-piperidin]-2-one], the negative logarithm of the EC50 (pEC50) in test [1] was 6.94; in test [2] it was 7.35. The AC50 at APOL1 G2 was 261 nM.

Take `CC(C)(C(N)=O)c1ccc(OCCN2CCC3(CC2)C(=O)Nc2ccc(C#N)cc23)cc1` [Compound 257, 2-[4-(2-{5-cyano-2-oxo-1,2-dihydrospiro[indole-3,4′-piperidin]-1′-yl}ethoxy)phenyl]-2-methylpropanamide]: the pEC50 in test [1] was approximately 6.00; in test [2] it was 6.59. Besides, on APOL1 G2, the AC50 was 974 nM.

Take `NC(=O)c1ncc(OCCN2CCC3(CC2)C(=O)Nc2ccc(Cl)cc23)cn1` [Compound 258, 5-(2-{5-chloro-2-oxo-1,2-dihydrospiro[indole-3,4′-piperidin]-1′-yl}ethoxy)pyrimidine-2-carboxamide]: the pEC50 in test [1] is approximately 5.89; in test [2], 6.35. Also, the AC50 on APOL1 G2 came out at 1050 nM.

Take `CC(COc1ccc(C2(S(C)(=O)=O)COC2)cc1)N1CCC2(CC1)C(=O)Nc1ccc(C#N)cc12` (stereo not drawn) [Compound 262, 1′-{1-[4-(3-methanesulfonyloxetan-3-yl)phenoxy]propan-2-yl}-2-oxo-1,2-dihydrospiro[indole-3,4′-piperidine]-5-carbonitrile]: the pEC50 in test [1] is 5.75; in test [2], 6.52. The AC50 on APOL1 G2 worked out at 2390 nM.

`CN(C)c1ncc(OCCN2CCC3(CC2)C(=O)Nc2ccc(Cl)cc23)cn1` [Compound 303, 5-chloro-1′-(2-{[2-(dimethylamino)pyrimidin-5-yl]oxy}ethyl)-1,2-dihydrospiro[indole-3,4′-piperidin]-2-one]: the pEC50 in test [1] is 6.45; in test [2], 6.81. The AC50 on APOL1 G2 worked out at 822 nM.

Take `O=C1Nc2ccc(Cl)cc2C12CCN(CCOc1cnc(N3CC4(C3)CS(=O)(=O)C4)nc1)CC2` [Compound 304, 6-[5-(2-{5-chloro-2-oxo-1,2-dihydrospiro[indole-3,4′-piperidin]-1′-yl}ethoxy)pyrimidin-2-yl]-2λ^6-thia-6-azaspiro[3.3]heptane-2,2-dione]: the pEC50 in test [1] was 6.54; in test [2], 6.87. For the same compound, the AC50 on APOL1 G2 was determined as 1010 nM.

In the case of `CC1(O)CC(N2C(=O)CCc3cc(OCCN4CCC5(CC4)C(=O)Nc4ccc(Cl)cc45)cnc32)C1` (stereo not drawn) [Compound 315, 5-chloro-1′-(2-{[8-(3-hydroxy-3-methylcyclobutyl)-7-oxo-5,6,7,8-tetrahydro-1,8-naphthyridin-3-yl]oxy}ethyl)-1,2-dihydrospiro[indole-3,4′-piperidin]-2-one], the figures for the negative logarithm of the EC50 (pEC50) in test [1] and in test [2] were 7.07 and 7.59, respectively. For the same compound, the AC50 on APOL1 G2 is 330 nM.

The values above are taken from US12344610B2, “APOL1 inhibitors and methods of use” (Maze Therapeutics, Inc., priority 2022, dated 2025).
